# Measured values published in paper PMC7413254 (Nature Communications, 2020).
# Read-outs that look alike come from different tables or passages of the source.
# Key:
# non-expressing oocytes [1] = format: cell-based, Xenopus laevis; conditions: total [3H]CQ transport; for Uptake of [3H]CQ (% non-expressing oocyte control), trans-stimulation: non-expressing oocytes, normalised to the oocyte type control; for Uptake of [3H]CQ (% PfCRTDd2 control), trans-stimulation, non-expressing oocytes: mean ± SEM, SEM
# Procedure, shortened: (§1)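 Oocytes (ten per treatment, ≥4 independent frogs/days) were preloaded by injecting VF-6 in 25 nL ND96 at pH 5.0, 5.5, 6.0 or 7.0, or Na^+-free choline buffer, then uptake run 1.5 h, 27.5 °C, ND96 pH 5.5 by default. Internal concentrations assumed ~400 nL oocyte volume.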
# PfCRT^3D7 [2] = target: T1, PfCRT^3D7 (Plasmodium falciparum, UniProt Q8IBZ9); assay: cell-based; format: cell-based; conditions: total [3H]CQ transport; for inhibition at 500 µM: [test solute] = 0.5 mM; for inhibition at 1000 µM: [test solute] = 1 mM; for inhibition at 2000 µM: [test solute] = 2 mM
# Procedure, shortened: (§2)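 Each treatment used ten oocytes, repeated in at least four experiments on different days with oocytes from different frogs. Conditions: ND96 pH 5.5, 27.5 °C, 1.5 h; read-out by scintillation counting.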
# PfCRT [3] = assay: Test of solutes as potential co-substrates for influx of VF-6 via PfCRT into the oocyte; format: cell-based, Plasmodium falciparum; set-up: key: X: Compounds that have been tested as potential co-substrates but are not required for influx of VF-6 via PfCRT into the oocyte; conditions: X = tested
# non-expressing oocytes [4] = assay: cells; format: cell-based, Xenopus laevis; conditions: Xenopus laevis, total [3H]CQ transport; for inhibition at 500 µM: [test solute] = 0.5 mM; for inhibition at 1000 µM: [test solute] = 1 mM; for inhibition at 2000 µM: [test solute] = 2 mM
# Procedure, shortened: as §2
# PfCRT^Dd2 [5] = target: T2, PfCRT^Dd2 (Plasmodium falciparum, UniProt Q9N623, A220S/I356T/K76T/M74I/N326S/N75E/Q271E/R371I); assay: cell-based; format: cell-based; conditions: […]; for activity at 45000 µM: [test solute]i = 45 mM (30 mM for some solutes due to solubility)
# Procedure, shortened: as §1
# PfCRT^3D7 [6] = target: T1, PfCRT^3D7; assay: cell-based; format: cell-based
# Procedure, shortened: as §1
# PfNT1 = target: T3, PfNT1 (Plasmodium falciparum, UniProt Q8IDM6); assay: cell-based; format: cell-based; conditions: for activity at 5000 µM: total [3H]CQ transport
# T3 construct: expressed in transfected cells; host or cells: Xenopus laevis oocytes (stage V-VI), cRNA-injected
# Procedure, shortened: as §1
# PfCRT^Ecu1110 [7] = target: T4, PfCRT^Ecu1110 (Plasmodium falciparum, UniProt Q9N623, A220S/I356L/K76T/N326D); assay: cell-based; format: cell-based; conditions: […]
# Procedure, shortened: as §1
# PfCRT^Dd2 [8] = target: T2, PfCRT^Dd2; assay: [3H]CQ uptake into Xenopus oocytes, cis-inhibition by unlabelled solute; format: cell-based
# Procedure, shortened: as §2
# PfCRT^Ecu1110 [9] = target: T4, PfCRT^Ecu1110; assay: as above; format: cell-based
# Procedure, shortened: as §2
# PfCRT [10] = assay: Influx of VF-6 via PfCRT into the oocyte, solutes tested as potential co-substrates; format: cell-based, Plasmodium falciparum; set-up: key: X: Compounds that have been tested as potential co-substrates but are not required for influx of VF-6 via PfCRT into the oocyte; conditions: X marks the solute
# [11] = PfCRT3D7 oocytes, normalised to the oocyte type control, read-out: Uptake of [3H]CQ (% PfCRT3D7 control), cis-inhibition
# [12] = mean ± SEM, SEM, read-out: Uptake of [3H]CQ (% PfCRTDd2 control), cis-inhibition, PfCRT3D7
# [13] = Oocyte, mean ± SEM, SEM, read-out: Uptake of [3H]CQ (% PfCRTDd2 control), cis-inhibition, non-expressing oocytes
# [14] = non-expressing oocytes, normalised to the oocyte type control, read-out: Uptake of [3H]CQ (% non-expressing oocyte control), cis-inhibition
# [15] = read-out: PfCRT-mediated [3H]CQ transport, cis-inhibition (% PfCRTDd2 control)
# [16] = read-out: Uptake of [3H]CQ (% PfCRTDd2 control), cis-inhibition, PfCRTDd2, SEM
# [17] = read-out: PfCRT-mediated [3H]CQ transport, cis-inhibition (% PfCRTEcu1110 control)
# [18] = read-out: Uptake of [3H]CQ (% PfCRTDd2 control), cis-inhibition, PfCRTEcu1110, SEM
# [19] = read-out: Uptake of [3H]CQ (% PfCRTEcu1110 control), cis-inhibition
# [20] = read-out: [3H]CQ transport (% PfCRTEcu1110 control), cis-inhibition, PfCRTEcu1110, SEM
# T2 sequence (Q9N623 whole entry A220S/I356T/K76T/M74I/N326S/N75E/Q271E/R371I): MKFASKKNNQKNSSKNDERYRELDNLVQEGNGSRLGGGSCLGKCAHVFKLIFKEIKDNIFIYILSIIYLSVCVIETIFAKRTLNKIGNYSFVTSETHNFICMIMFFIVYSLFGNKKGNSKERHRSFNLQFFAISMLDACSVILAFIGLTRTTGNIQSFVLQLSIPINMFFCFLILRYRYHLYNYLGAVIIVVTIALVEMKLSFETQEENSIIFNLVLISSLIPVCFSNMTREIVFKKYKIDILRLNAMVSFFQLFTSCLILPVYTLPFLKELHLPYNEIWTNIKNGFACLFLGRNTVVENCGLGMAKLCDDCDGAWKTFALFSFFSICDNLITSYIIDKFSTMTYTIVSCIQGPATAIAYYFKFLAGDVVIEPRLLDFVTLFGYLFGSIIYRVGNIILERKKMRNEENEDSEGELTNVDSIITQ
# T3 sequence (Q8IDM6 whole entry): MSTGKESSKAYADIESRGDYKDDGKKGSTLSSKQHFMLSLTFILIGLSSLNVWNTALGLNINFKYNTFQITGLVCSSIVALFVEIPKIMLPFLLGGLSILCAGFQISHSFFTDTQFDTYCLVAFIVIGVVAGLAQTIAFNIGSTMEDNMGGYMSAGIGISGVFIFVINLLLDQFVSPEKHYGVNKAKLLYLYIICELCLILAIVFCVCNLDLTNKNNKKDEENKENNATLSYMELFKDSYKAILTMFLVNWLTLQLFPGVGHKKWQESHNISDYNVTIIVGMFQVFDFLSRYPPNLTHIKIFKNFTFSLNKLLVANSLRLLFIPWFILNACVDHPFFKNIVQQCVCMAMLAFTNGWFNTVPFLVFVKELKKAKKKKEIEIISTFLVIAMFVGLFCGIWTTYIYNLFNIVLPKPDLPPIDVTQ
# T1 sequence (Q8IBZ9 59-398): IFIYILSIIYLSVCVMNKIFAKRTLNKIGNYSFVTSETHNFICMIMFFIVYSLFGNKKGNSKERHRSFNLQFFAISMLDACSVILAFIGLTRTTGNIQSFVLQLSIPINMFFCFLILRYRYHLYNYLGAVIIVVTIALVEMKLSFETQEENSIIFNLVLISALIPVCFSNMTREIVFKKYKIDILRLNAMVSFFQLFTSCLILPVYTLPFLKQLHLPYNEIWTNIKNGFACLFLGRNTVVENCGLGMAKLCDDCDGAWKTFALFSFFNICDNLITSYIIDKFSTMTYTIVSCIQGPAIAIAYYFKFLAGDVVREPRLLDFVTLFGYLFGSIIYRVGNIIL
# T4 sequence (Q9N623 whole entry A220S/I356L/K76T/N326D): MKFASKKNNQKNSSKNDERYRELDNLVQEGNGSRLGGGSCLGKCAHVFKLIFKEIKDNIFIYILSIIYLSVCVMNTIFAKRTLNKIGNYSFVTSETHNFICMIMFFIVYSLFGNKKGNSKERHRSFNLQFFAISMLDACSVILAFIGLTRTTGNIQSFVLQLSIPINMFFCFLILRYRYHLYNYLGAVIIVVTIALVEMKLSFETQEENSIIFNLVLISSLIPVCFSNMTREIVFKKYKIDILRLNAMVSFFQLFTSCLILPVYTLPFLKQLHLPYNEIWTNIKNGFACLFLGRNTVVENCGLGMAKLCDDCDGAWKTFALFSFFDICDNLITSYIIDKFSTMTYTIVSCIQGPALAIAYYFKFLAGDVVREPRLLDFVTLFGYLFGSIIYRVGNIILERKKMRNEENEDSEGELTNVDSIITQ
compound,measurement,setting,value
C[C@@H](O)[C@H](N)C(=O)O [L-threonine],"Uptake of [3H]CQ (% non-expressing oocyte control), trans-stimulation",non-expressing oocytes [1]; [test solute]i = 5 mM,101 ± 3.2 % non-expressing oocyte control
same,"Uptake of [3H]CQ (% non-expressing oocyte control), trans-stimulation",non-expressing oocytes [1]; [test solute]i = 45 mM (30 mM for some solutes due to solubility),99 ± 2.4 % non-expressing oocyte control
same,"Uptake of [3H]CQ (% PfCRTDd2 control), trans-stimulation, non-expressing oocytes",non-expressing oocytes [1]; [test solute]i = 5 mM (intracellular),2.4 ± 0.08 % PfCRTDd2 control
same,"Uptake of [3H]CQ (% PfCRTDd2 control), trans-stimulation, non-expressing oocytes",non-expressing oocytes [1]; [test solute]i = 45 mM (intracellular; 30 mM for some solutes due to solubility),2.8 ± 0.02 % PfCRTDd2 control
same,inhibition at 500 µM,PfCRT^3D7 [2]; [11],100 ± 4.7%
same,inhibition at 1000 µM,PfCRT^3D7 [2]; [11],100 ± 5.3%
same,inhibition at 2000 µM,PfCRT^3D7 [2]; [11],99 ± 5.3%
same,inhibition at 500 µM,PfCRT^3D7 [2]; [12],2.9 ± 0.03%
same,inhibition at 1000 µM,PfCRT^3D7 [2]; [12],2.8 ± 0.07%
same,inhibition at 2000 µM,PfCRT^3D7 [2]; [12],3.3 ± 0.03%
same,Tested as potential co-substrate but not required for influx of VF-6 via PfCRT into the oocyte,PfCRT [3],X
same,inhibition at 500 µM,non-expressing oocytes [4]; [13],2.2 ± 0.04%
same,inhibition at 1000 µM,non-expressing oocytes [4]; [13],3.8 ± 0.08%
same,inhibition at 2000 µM,non-expressing oocytes [4]; [13],2.8 ± 0.02%
same,inhibition at 500 µM,non-expressing oocytes [4]; [14],95 ± 5.4%
same,inhibition at 1000 µM,non-expressing oocytes [4]; [14],98 ± 3.6%
same,inhibition at 2000 µM,non-expressing oocytes [4]; [14],100 ± 3.6%
same,activity at 5000 µM,"PfCRT^Dd2 [5]; pH 5.5, read-out: PfCRT-mediated [3H]CQ transport, trans-stimulation (% PfCRTDd2 control), [test solute]i = 5 mM (intracellular), PfCRTDd2 oocytes, normalised to oocyte type control",96 ± 3.2%
same,activity at 5000 µM,"PfCRT^Dd2 [5]; pH 5.5, read-out: Uptake of [3H]CQ (% PfCRTDd2 control), trans-stimulation, PfCRTDd2, total [3H]CQ transport, [test solute]i = 5 mM (intracellular), mean ± SEM, SEM",98 ± 3.2%
same,activity at 5000 µM,"PfCRT^Dd2 [5]; pH 5.5, read-out: Uptake of [3H]CQ (% PfCRTDd2 control), trans-stimulation, PfCRTDd2 oocytes, [test solute]i = 5 mM, total [3H]CQ transport, normalised to the oocyte type control",98 ± 3.2%
same,activity at 45000 µM,"PfCRT^Dd2 [5]; pH 5.5, read-out: Uptake of [3H]CQ (% PfCRTDd2 control), trans-stimulation, PfCRTDd2 oocytes, total [3H]CQ transport, normalised to the oocyte type control",99 ± 3.2%
same,activity at 5000 µM,"PfCRT^Dd2 [5]; pH 5.5, read-out: [3H]CQ transport (% PfCRTDd2 control), trans-stimulation, PfCRTDd2, trans-stimulation, [test solute]i = 5 mM (injected), PfCRT-mediated component (background subtracted), mean ± SEM, SEM",96 ± 3.2%
same,activity at 45000 µM,"PfCRT^Dd2 [5]; pH 5.5, read-out: [3H]CQ transport (% PfCRTDd2 control), trans-stimulation, PfCRTDd2, trans-stimulation, PfCRT-mediated component (background subtracted), mean ± SEM, SEM",97 ± 3.9%
same,activity at 5000 µM,"PfCRT^3D7 [6]; PfCRT3D7 oocytes, [test solute]i = 5 mM, total [3H]CQ transport, normalised to the oocyte type control, read-out: Uptake of [3H]CQ (% PfCRT3D7 control), trans-stimulation",99 ± 4.2%
same,"[3H]CQ transport (% PfCRT3D7 control), trans-stimulation, PfCRT3D7",PfCRT^3D7 [6]; SEM,0.3 ± 0.01 % PfCRT3D7 control
same,activity at 5000 µM,"PfCRT^3D7 [6]; [test solute]i = 5 mM (intracellular), PfCRT3D7 oocytes, normalised to oocyte type control, read-out: PfCRT-mediated [3H]CQ transport, trans-stimulation (% PfCRT3D7 control)",97 ± 2.9%
same,activity at 45000 µM,"PfCRT^3D7 [6]; SEM, read-out: Uptake of [3H]CQ (% PfCRTDd2 control), trans-stimulation, PfCRT3D7",3.3 ± 0.02%
same,activity at 45000 µM,"PfCRT^3D7 [6]; read-out: PfCRT-mediated [3H]CQ transport, trans-stimulation (% PfCRT3D7 control)",96 ± 3.1%
same,activity at 45000 µM,"PfCRT^3D7 [6]; read-out: Uptake of [3H]CQ (% PfCRT3D7 control), trans-stimulation",98 ± 2.8%
same,activity at 5000 µM,"PfCRT^3D7 [6]; total [3H]CQ transport, [test solute]i = 5 mM (intracellular), mean ± SEM, SEM, read-out: Uptake of [3H]CQ (% PfCRTDd2 control), trans-stimulation, PfCRT3D7",3.3 ± 0.1%
same,activity at 5000 µM,"PfNT1; PfNT1 oocytes, [test solute]i = 5 mM, normalised to the oocyte type control, read-out: Uptake of [3H]CQ (% PfNT1 control), trans-stimulation",99 ± 3.5%
same,activity at 45000 µM,"PfNT1; SEM, read-out: Uptake of [3H]CQ (% PfCRTDd2 control), trans-stimulation, PfNT1",2.6 ± 0.08%
same,activity at 45000 µM,"PfNT1; read-out: Uptake of [3H]CQ (% PfNT1 control), trans-stimulation",100 ± 2.6%
same,activity at 5000 µM,"PfNT1; [test solute]i = 5 mM (intracellular), mean ± SEM, SEM, read-out: Uptake of [3H]CQ (% PfCRTDd2 control), trans-stimulation, PfNT1",2.8 ± 0.05%
same,activity at 5000 µM,"PfCRT^Ecu1110 [7]; pH 5.5, read-out: PfCRT-mediated [3H]CQ transport, trans-stimulation (% PfCRTEcu1110 control), [test solute]i = 5 mM (intracellular), PfCRTEcu1110 oocytes, normalised to oocyte type control",99 ± 3.4%
same,activity at 5000 µM,"PfCRT^Ecu1110 [7]; pH 5.5, read-out: Uptake of [3H]CQ (% PfCRTEcu1110 control), trans-stimulation, PfCRTEcu1110 oocytes, [test solute]i = 5 mM, total [3H]CQ transport, normalised to the oocyte type control",101 ± 2.5%
same,activity at 45000 µM,"PfCRT^Ecu1110 [7]; pH 5.5, read-out: Uptake of [3H]CQ (% PfCRTEcu1110 control), trans-stimulation, PfCRTEcu1110 oocytes, [test solute]i = 45 mM (30 mM for some solutes due to solubility), total [3H]CQ transport, normalised to the oocyte type control",99 ± 2%
same,activity at 5000 µM,"PfCRT^Ecu1110 [7]; read-out: Uptake of [3H]CQ (% PfCRTDd2 control), trans-stimulation, PfCRTEcu1110, total [3H]CQ transport, [test solute]i = 5 mM (intracellular), mean ± SEM, SEM",36 ± 1.9%
same,activity at 45000 µM,"PfCRT^Ecu1110 [7]; read-out: Uptake of [3H]CQ (% PfCRTDd2 control), trans-stimulation, PfCRTEcu1110, total [3H]CQ transport, [test solute]i = 45 mM (intracellular; 30 mM for some solutes due to solubility), mean ± SEM, SEM",35 ± 1.3%
same,inhibition at 500 µM,PfCRT^Dd2 [8]; [15],95 ± 3.6%
same,inhibition at 2000 µM,PfCRT^Dd2 [8]; [15],92 ± 5.6%
same,inhibition at 500 µM,PfCRT^Dd2 [8]; [16],97 ± 2.5%
same,inhibition at 1000 µM,PfCRT^Dd2 [8]; [16],96 ± 3.6%
same,inhibition at 2000 µM,PfCRT^Dd2 [8]; [16],94 ± 3.2%
same,inhibition at 500 µM,PfCRT^Ecu1110 [9]; [17],94 ± 1.1%
same,inhibition at 1000 µM,PfCRT^Ecu1110 [9]; [17],95 ± 1.3%
same,inhibition at 2000 µM,PfCRT^Ecu1110 [9]; [17],94 ± 3.7%
same,inhibition at 500 µM,PfCRT^Ecu1110 [9]; [18],31 ± 1.1%
same,inhibition at 1000 µM,PfCRT^Ecu1110 [9]; [18],32 ± 1.9%
same,inhibition at 2000 µM,PfCRT^Ecu1110 [9]; [18],31 ± 1.3%
same,inhibition at 500 µM,PfCRT^Ecu1110 [9]; [19],96 ± 3.1%
same,inhibition at 1000 µM,PfCRT^Ecu1110 [9]; [19],98 ± 2.4%
same,inhibition at 2000 µM,PfCRT^Ecu1110 [9]; [19],96 ± 2.2%
same,inhibition at 500 µM,PfCRT^Ecu1110 [9]; [20],28 ± 0.6%
same,inhibition at 1000 µM,PfCRT^Ecu1110 [9]; [20],29 ± 0.8%
same,inhibition at 2000 µM,PfCRT^Ecu1110 [9]; [20],28 ± 1.5%
same,Compounds that have been tested as potential co-substrates but are not required for influx of VF-6 via PfCRT into the oocyte,PfCRT [10],X
